Laboratory results published in article PMC12649549, “Sequence Permutation Generated Lysine and Tryptophan-Rich Antimicrobial Peptides with Enhanced Therapeutic Index” (Antibiotics, 2025).
Where two headings read alike, the source gives them in different places.

Key:
[1] = test system: A. baumannii 14B00100 (Acinetobacter sp., BCRC number 14B0100)
Outline: (§1)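 MICs came from CLSI broth microdilution, with 5 × 10^5 CFU/mL bacteria exposed to peptide at final 0.78–50 µg/mL. Media were MH broth or LYM broth (pH 7.4), the latter also adjusted for salt (NaCl 50–300 mM, MgCl2 0.5–2.5 mM) or acidity (pH 4.5–6.5); triplicate independent experiments.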

[2] = test system: A. baumannii 14B0091 (Acinetobacter sp., BCRC number 14B0091)
Outline: as §1

[3] = test system: Escherichia coli (ATCC 25922)
Outline: as §1

[4] = test system: Pseudomonas aeruginosa Migula (ATCC 27853)
Outline: as §1

[5] = test system: S. aureus ATCC 33591
Outline: as §1

[6] = test system: S. aureus ATCC 33593
Outline: as §1

[7] = test system: Gram-negative bacteria; assay: Geometric mean MIC and therapeutic index, Gram-negative bacteria; format: cell-based; conditions: Gram-negative bacteria; for GM G− (geometric mean of the MIC values): MH broth, MIC >50 µg/mL counted as 100 µg/mL; for Therapeutic Index (TI) G−: HC10/GM
Outline: (§2)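 Selectivity index derived from human red blood cell HC10 relative to geometric mean MIC. Inoculum was 5 × 10^5 CFU/mL in Müller-Hinton or modified LYM broth, and each experiment was repeated independently three times.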

[8] = test system: Both Gram-positive and -negative bacteria; assay: Geometric mean MIC, therapeutic index and fold changes of MIC, whole panel of strains; format: cell-based; conditions: for GM G−/+ (geometric mean of the MIC values): Both Gram-positive and -negative bacteria, MIC >50 µg/mL counted as 100 µg/mL; for Therapeutic Index (TI) G−/+: HC10/GM, both Gram-positive and -negative bacteria
Outline: as §2

[9] = LYM broth, 0 mM NaCl, 16 h, 37 °C
[10] = LYM broth, 50 mM NaCl, 16 h, 37 °C
[11] = LYM broth, 100 mM NaCl, 16 h, 37 °C
[12] = LYM broth, 200 mM (NaCl), 16 h, 37 °C
[13] = LYM broth, 300 mM (NaCl), 16 h, 37 °C
[14] = MH broth, 5 × 10^5 CFU/mL, 16 h, 37 °C, repeated three times

Ac-KWRKWLKWLAKKK-NH2 [Peptide W5K01]
>50 µg/mL: MIC [3, 12] | MIC [3, 13] | MIC [4, 12] | MIC [4, 13]
12.5 µg/mL: MIC [2, 13] | MIC ([3]; LYM broth, 2.5 mM MgCl2) | MIC [3, 14] | MIC ([4]; LYM broth, 2.5 mM MgCl2) | MIC [4, 11] | MIC [4, 14] | MIC [5, 10] | MIC [5, 11] | MIC [6, 11]
4.6: Therapeutic Index (TI) G−/+ [8]
25 µg/mL: MIC [3, 11] | MIC [5, 12] | MIC [6, 12]
1.56 µg/mL: MIC [1, 9] | MIC ([1]; LYM broth, 0.5 mM MgCl2) | MIC ([1]; LYM broth, 1.5 mM MgCl2) | MIC [1, 10] | MIC ([1]; LYM broth, pH 4.5) | MIC ([1]; LYM broth, pH 5.5) | MIC ([1]; LYM broth, pH 6.5) | MIC [2, 9] | MIC ([2]; LYM broth, 0.5 mM MgCl2) | MIC ([2]; LYM broth, 1.5 mM MgCl2) | MIC ([2]; LYM broth, pH 4.5) | MIC ([2]; LYM broth, pH 5.5) | MIC ([2]; LYM broth, pH 6.5) | MIC ([4]; LYM broth, pH 6.5)
8.2 µg/mL: GM G− (geometric mean of the MIC values) [7]
15.4 µg/mL: GM G−/+ (geometric mean of the MIC values) ([8]; MH broth)
2–4 fold: folds higher MIC values than W5KA9W ([8]; MH broth, in most bacteria strains)
6.25 µg/mL: MIC [1, 13] | MIC [1, 14] | MIC [2, 14] | MIC ([3]; LYM broth, 0.5 mM MgCl2) | MIC ([3]; LYM broth, 1.5 mM MgCl2) | MIC [3, 10] | MIC ([4]; LYM broth, 1.5 mM MgCl2) | MIC [4, 10] | MIC [5, 9] | MIC ([5]; LYM broth, 0.5 mM MgCl2) | MIC ([5]; LYM broth, 1.5 mM MgCl2) | MIC ([5]; LYM broth, 2.5 mM MgCl2) | MIC ([5]; LYM broth, pH 4.5) | MIC ([5]; LYM broth, pH 5.5) | MIC [6, 9] | MIC ([6]; LYM broth, 0.5 mM MgCl2) | MIC ([6]; LYM broth, 1.5 mM MgCl2) | MIC ([6]; LYM broth, 2.5 mM MgCl2) | MIC [6, 10] | MIC ([6]; LYM broth, pH 4.5)
4 fold: weakening of bactericidal efficacy (MIC) ([8]; LYM broth, 2.5 mM MgCl2)
8.6: Therapeutic Index (TI) G− [7]
50 µg/mL: MIC [5, 13] | MIC [5, 14] | MIC [6, 13] | MIC [6, 14]
3.13 µg/mL: MIC ([1]; LYM broth, 2.5 mM MgCl2) | MIC [1, 11] | MIC [1, 12] | MIC ([2]; LYM broth, 2.5 mM MgCl2) | MIC [2, 10] | MIC [2, 11] | MIC [2, 12] | MIC [3, 9] | MIC ([3]; LYM broth, pH 4.5) | MIC ([3]; LYM broth, pH 5.5) | MIC ([3]; LYM broth, pH 6.5) | MIC [4, 9] | MIC ([4]; LYM broth, 0.5 mM MgCl2) | MIC ([4]; LYM broth, pH 4.5) | MIC ([4]; LYM broth, pH 5.5) | MIC ([5]; LYM broth, pH 6.5) | MIC ([6]; LYM broth, pH 5.5) | MIC ([6]; LYM broth, pH 6.5)

Ac-LAKKKKWRKWLKW-NH2 [Peptide W5K09]
2.2: Therapeutic Index (TI) G−/+ [8]
33.0 µg/mL: GM G− (geometric mean of the MIC values) [7]
50 µg/mL: MIC [1, 14] | MIC [2, 12] | MIC [2, 14] | MIC [3, 12] | MIC [4, 12] | MIC ([5]; LYM broth, 1.5 mM MgCl2) | MIC ([5]; LYM broth, 2.5 mM MgCl2) | MIC [5, 11] | MIC ([6]; LYM broth, 2.5 mM MgCl2) | MIC [6, 11]
12.5 µg/mL: MIC [2, 11] | MIC ([3]; LYM broth, 1.5 mM MgCl2) | MIC ([3]; LYM broth, 2.5 mM MgCl2) | MIC [3, 10] | MIC ([4]; LYM broth, 2.5 mM MgCl2) | MIC [4, 11] | MIC ([5]; LYM broth, pH 5.5) | MIC ([5]; LYM broth, pH 6.5) | MIC ([6]; LYM broth, pH 6.5)
6.25 µg/mL: MIC [1, 11] | MIC [2, 10] | MIC ([2]; LYM broth, pH 4.5) | MIC [3, 9] | MIC ([3]; LYM broth, 0.5 mM MgCl2) | MIC ([3]; LYM broth, pH 4.5) | MIC ([4]; LYM broth, 0.5 mM MgCl2) | MIC ([4]; LYM broth, 1.5 mM MgCl2) | MIC [4, 10] | MIC ([4]; LYM broth, pH 4.5)
25 µg/mL: MIC [1, 12] | MIC [3, 11] | MIC [3, 14] | MIC [4, 14] | MIC [5, 9] | MIC ([5]; LYM broth, 0.5 mM MgCl2) | MIC [5, 10] | MIC ([5]; LYM broth, pH 4.5) | MIC [6, 9] | MIC ([6]; LYM broth, 0.5 mM MgCl2) | MIC ([6]; LYM broth, 1.5 mM MgCl2) | MIC [6, 10] | MIC ([6]; LYM broth, pH 4.5) | MIC ([6]; LYM broth, pH 5.5)
1.56 µg/mL: MIC ([1]; LYM broth, pH 5.5) | MIC ([1]; LYM broth, pH 6.5) | MIC [2, 9] | MIC ([2]; LYM broth, pH 6.5)
50.0 µg/mL: GM G−/+ (geometric mean of the MIC values) ([8]; MH broth)
3.13 µg/mL: MIC [1, 9] | MIC ([1]; LYM broth, 0.5 mM MgCl2) | MIC ([1]; LYM broth, 1.5 mM MgCl2) | MIC ([1]; LYM broth, 2.5 mM MgCl2) | MIC [1, 10] | MIC ([1]; LYM broth, pH 4.5) | MIC ([2]; LYM broth, 0.5 mM MgCl2) | MIC ([2]; LYM broth, 1.5 mM MgCl2) | MIC ([2]; LYM broth, 2.5 mM MgCl2) | MIC ([2]; LYM broth, pH 5.5) | MIC ([3]; LYM broth, pH 5.5) | MIC ([3]; LYM broth, pH 6.5) | MIC [4, 9] | MIC ([4]; LYM broth, pH 5.5) | MIC ([4]; LYM broth, pH 6.5)
3.3: Therapeutic Index (TI) G− [7]
>50 µg/mL: MIC [1, 13] | MIC [2, 13] | MIC [3, 13] | MIC [4, 13] | MIC [5, 12] | MIC [5, 13] | MIC [5, 14] | MIC [6, 12] | MIC [6, 13] | MIC [6, 14]
